Experimental data published in PubChem BioAssay (NCI).
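Assay format: 96-well plates, 48-hour exposure. TGI marks complete inhibition of growth.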

Key:
Assay in all cases: growth of human tumour cells (NCI), 48 h
[1] = test system: 786-0 renal
[2] = test system: A498 renal
[3] = test system: A549 NSCLC
[4] = test system: ACHN renal
[5] = test system: BT-549 breast
[6] = test system: CAKI-1 renal
[7] = test system: CCRF-CEM leukemia
[8] = test system: COLO 205 colon
[9] = test system: DLD-1 colon
[10] = test system: DMS 114 small cell lung
[11] = test system: DMS 273 small cell lung
[12] = test system: DU-145 prostate
[13] = test system: EKVX NSCLC
[14] = test system: HCC-2998 colon
[15] = test system: HCT-116 colon
[16] = test system: HCT-15 colon
[17] = test system: HL-60(TB) leukemia
[18] = test system: HOP-18 NSCLC
[19] = test system: HOP-62 NSCLC
[20] = test system: HOP-92 NSCLC
[21] = test system: HS 578T breast
[22] = test system: HT29 colon
[23] = test system: IGROV1 ovarian
[24] = test system: K-562 leukemia
[25] = test system: KM12 colon
[26] = test system: KM20L2 colon
[27] = test system: LOX IMVI melanoma
[28] = test system: LXFL 529 NSCLC
[29] = test system: M14 melanoma
[30] = test system: M19-MEL melanoma
[31] = test system: MALME-3M melanoma
[32] = test system: MCF7 breast
[33] = test system: MDA-MB-231 breast
[34] = test system: MDA-MB-435
[35] = test system: NCI-H226 lung
[36] = test system: NCI-H23 lung
[37] = test system: NCI-H460 lung
[38] = test system: NCI-H522 lung
[39] = test system: NCI/ADR-RES ovarian
[40] = test system: OVCAR-3 ovarian
[41] = test system: OVCAR-4 ovarian
[42] = test system: OVCAR-5 ovarian
[43] = test system: OVCAR-8 ovarian
[44] = test system: PC-3 prostate
[45] = test system: RPMI-8226 leukemia
[46] = test system: RXF 393 renal
[47] = test system: RXF-631 renal
[48] = test system: SF-268 CNS
[49] = test system: SF-295 CNS
[50] = test system: SF-539 CNS
[51] = test system: SK-MEL-2 melanoma
[52] = test system: SK-MEL-28 melanoma
[53] = test system: SK-MEL-5 melanoma
[54] = test system: SK-OV-3 ovarian
[55] = test system: SN12C renal
[56] = test system: SNB-19 CNS
[57] = test system: SNB-75 CNS
[58] = test system: SNB-78 CNS
[59] = test system: SR leukemia
[60] = test system: SW-620 colon
[61] = test system: T-47D breast
[62] = test system: TK-10 renal
[63] = test system: U251 CNS
[64] = test system: UACC-257 melanoma
[65] = test system: UACC-62 melanoma
[66] = test system: UO-31 renal
[67] = test system: XF 498 CNS
[68] = test system: MOLT-4 leukemia

N#CC(C(=O)/C(=N/Nc1nc(=S)[nH]n1N)C(C#N)c1ccccc1)c1ccccc1 (stereo not drawn)
TGI [1]: > 100 µM
TGI [2]: > 100 µM
TGI [3]: > 100 µM
TGI [4]: > 100 µM
TGI [5]: > 100 µM
TGI [6]: > 100 µM
TGI [7]: > 100 µM
TGI [8]: > 100 µM
TGI [9]: > 100 µM
TGI [10]: > 100 µM
TGI [11]: > 100 µM
TGI [12]: > 100 µM
TGI [13]: > 100 µM
TGI [14]: > 100 µM
TGI [15]: > 100 µM
TGI [16]: > 100 µM
TGI [17]: > 100 µM
TGI [18]: > 100 µM
TGI [19]: > 100 µM
TGI [20]: > 100 µM
TGI [21]: > 100 µM
TGI [22]: > 100 µM
TGI [23]: > 100 µM
TGI [24]: > 100 µM
TGI [25]: > 100 µM
TGI [26]: > 100 µM
TGI [27]: > 100 µM
TGI [28]: > 100 µM
TGI [29]: > 100 µM
TGI [30]: > 100 µM
TGI [31]: > 100 µM
TGI [32]: > 100 µM
TGI [33]: > 100 µM
TGI [34]: > 100 µM
TGI [35]: > 100 µM
TGI [36]: > 100 µM
TGI [37]: > 100 µM
TGI [38]: > 100 µM
TGI [39]: > 100 µM
TGI [40]: > 100 µM
TGI [41]: > 100 µM
TGI [42]: > 100 µM
TGI [43]: > 100 µM
TGI [44]: > 100 µM
TGI [45]: > 100 µM
TGI [46]: > 100 µM
TGI [47]: > 100 µM
TGI [48]: > 100 µM
TGI [49]: > 100 µM
TGI [50]: > 100 µM
TGI [51]: > 100 µM
TGI [52]: > 100 µM
TGI [53]: > 100 µM
TGI [54]: > 100 µM
TGI [55]: > 100 µM
TGI [56]: > 100 µM
TGI [57]: > 100 µM
TGI [58]: > 100 µM
TGI [59]: > 100 µM
TGI [60]: > 100 µM
TGI [61]: > 100 µM
TGI [62]: > 100 µM
TGI [63]: > 100 µM
TGI [64]: > 100 µM
TGI [65]: > 100 µM
TGI [66]: > 100 µM
TGI [67]: > 100 µM

Nc1ccc(C(=O)NN2C(=O)C(Cl)C2c2ccccc2Cl)cc1 (stereo not drawn)
TGI [1]: 3.35 µM
TGI [3]: 27.8 µM
TGI [4]: 30 µM
TGI [6]: 26.9 µM
TGI [7]: 6.67 µM
TGI [8]: 28.1 µM
TGI [9]: 23 µM
TGI [10]: 18.8 µM
TGI [11]: 12 µM
TGI [13]: 31.7 µM
TGI [14]: 30.1 µM
TGI [15]: 16.3 µM
TGI [16]: 10.2 µM
TGI [18]: 8.87 µM
TGI [19]: 35.4 µM
TGI [20]: 14.9 µM
TGI [22]: 23.5 µM
TGI [23]: 26.4 µM
TGI [25]: 24.5 µM
TGI [26]: 29.9 µM
TGI [27]: 2.9 µM
TGI [28]: 5.23 µM
TGI [29]: 25.9 µM
TGI [30]: 20.5 µM
TGI [31]: 31.4 µM
TGI [68]: 8.1 µM
TGI [35]: 31.5 µM
TGI [36]: 24.9 µM
TGI [37]: 16.5 µM
TGI [38]: 3.13 µM
TGI [40]: 26.9 µM
TGI [41]: 27.1 µM
TGI [42]: 28.4 µM
TGI [43]: 10.8 µM
TGI [45]: > 100 µM
TGI [46]: 20.1 µM
TGI [48]: 15.2 µM
TGI [49]: 12.6 µM
TGI [50]: 20.2 µM
TGI [51]: 24.5 µM
TGI [52]: 28.3 µM
TGI [53]: 29.5 µM
TGI [54]: 29.6 µM
TGI [56]: 30.6 µM
TGI [57]: 31.3 µM
TGI [58]: 33 µM
TGI [59]: 31.9 µM
TGI [60]: 10.7 µM
TGI [62]: 30.1 µM
TGI [63]: 24.7 µM
TGI [64]: 26.8 µM
TGI [65]: 20.8 µM
TGI [66]: 30.8 µM
TGI [67]: 31.5 µM

COC(=O)/C=C/C1C(C(=O)OC)C2(C(=O)OC)CCC1(C(=O)OC)N2 (stereo not drawn)
TGI [1]: > 100 µM
TGI [2]: > 100 µM
TGI [3]: > 100 µM
TGI [4]: > 100 µM
TGI [6]: > 100 µM
TGI [7]: > 100 µM
TGI [8]: > 100 µM
TGI [9]: > 100 µM
TGI [11]: > 100 µM
TGI [13]: > 100 µM
TGI [14]: > 100 µM
TGI [15]: > 100 µM
TGI [16]: > 100 µM
TGI [17]: > 100 µM
TGI [18]: > 100 µM
TGI [19]: > 100 µM
TGI [20]: > 100 µM
TGI [22]: > 100 µM
TGI [23]: > 100 µM
TGI [24]: > 100 µM
TGI [25]: > 100 µM
TGI [26]: > 100 µM
TGI [27]: > 100 µM
TGI [28]: > 100 µM
TGI [29]: > 100 µM
TGI [30]: > 100 µM
TGI [31]: > 100 µM
TGI [68]: > 100 µM
TGI [35]: > 100 µM
TGI [36]: > 100 µM
TGI [37]: > 100 µM
TGI [38]: > 100 µM
TGI [40]: > 100 µM
TGI [41]: > 100 µM
TGI [42]: > 100 µM
TGI [43]: > 100 µM
TGI [45]: > 100 µM
TGI [46]: > 100 µM
TGI [47]: > 100 µM
TGI [48]: > 100 µM
TGI [49]: > 100 µM
TGI [50]: > 100 µM
TGI [51]: > 100 µM
TGI [53]: > 100 µM
TGI [54]: > 100 µM
TGI [55]: > 100 µM
TGI [56]: > 100 µM
TGI [57]: > 100 µM
TGI [58]: > 100 µM
TGI [59]: > 100 µM
TGI [60]: > 100 µM
TGI [62]: > 100 µM
TGI [63]: > 100 µM
TGI [64]: > 100 µM
TGI [65]: > 100 µM
TGI [66]: > 100 µM
TGI [67]: > 100 µM
